Source: publication PMC6781309, “Assessing Drug Interaction and Pharmacokinetics of Loxoprofen in Mice Treated with CYP3A Modulators” (Pharmaceutics, 2019)

Tests used:
CYP2D = experiment: CYP activity in liver S9 of treated mice: dextromethorphan O-demethylation; type: in vivo, Male ICR mice; settings: liver S9, dextromethorphan 5 µM
Method: (§1) Twenty-four hours after the last treatment, the liver was excised and homogenized with three volumes of ice-cold 0.1 M potassium phosphate buffer (pH 7.4). The supernatant fraction was then separated as the S9 fraction from the mixture by centrifugation at 9000× g at 4 °C and stored at −80 °C until use.
(§2) To characterize the CYP activities in the harvested livers, phenacetin O-demethylation (using 80 µM of phenacetin) for CYP1A, dextromethorphan O-demethylation (using 5 µM of dextromethorphan) for CYP2D, and midazolam 1’-hydroxylation (using 5 µM of midazolam) for CYP3A were used as cocktail probe reactions. The level of protein in the S9 fraction was determined by Bradford assay. The cocktail probes were then incubated with 10 µL of each S9 fraction, potassium phosphate buffer (pH 7.4), and an NADPH generating system (NGS) in a final volume of 100 µL. After incubation for 30 min at 37 °C, ice-cold ACN containing 0.1% formic acid and IS (5 µM) was added to stop the reaction. Samples were then vortexed and centrifuged at 13,000× g for 10 min at 4 °C. Finally, the supernatants were transferred to LC-MS/MS vials for analysis.

CYP3A = experiment: CYP activity in liver S9 of treated mice: midazolam 1'-hydroxylation; settings: liver S9, KTC 60 mg/kg i.p. once, midazolam 5 µM, n = 3
Method: as §1, §2

[1] = Plasma pharmacokinetics of LOX, cis-LOX and trans-LOX after oral LOX in mice pretreated with DEX, KTC or vehicle; type: in vivo, Male ICR mice; settings: mouse plasma, LOX 20 mg/kg oral, mean ± SE, n = 3
Method: The acclimatized animals were divided into eight groups, with each group containing 3 mice: groups I and II, vehicle (corn oil); groups III and IV, DEX-treated; groups V and VI, vehicle (10% Ethanol); and groups VII and VIII, KTC-treated group. […] Then, animals were fasted for 12 hours with free access to water before starting the experiment. […]
After the oral administration of LOX, blood from groups I, III, V, and VII was collected from the tail at 0, 5, 10, 15, 30, 60, 120, and 240 min post-administration and placed into sodium heparin-containing tubes. After the last blood collection, the mice were sacrificed by cervical dislocation. Plasma was then prepared by centrifuging the blood at 4000× g for 15 min at 4 °C and stored at −80 °C until analysis. For analysis, each sample was prepared by mixing plasma (10 µL) and 90 µL of ACN containing 0.1% formic acid and 5 µM of tolbutamide as an internal standard (IS). […] Finally, 10 µL of sample supernatant was injected into the LC-MS/MS system. The PK parameters (the maximum plasma concentration [Cmax], time to reach the maximum plasma concentration [Tmax], elimination half-life [T1/2], and area under the plasma concentrations [AUC]) were analyzed by WinNonlin software (Version 2.1, Scientific Consulting, Louisville, KY, USA).
A Shimadzu Prominence UFLC system (Kyoto, Japan) connected to a TSQ vantage triple quadrupole mass spectrometer with a HESI-II spray source incorporated with a DGU-20A5 degasser, an LC-20AD pump, a SIL-20A autosampler, and a CTO-20A column oven was used for the analyses. A shim-pack GIS C18 column (150 × 3.0 mm, […]) was used to separate analytes in the samples. Mobile phases A and B were composed of water with formic acid and ACN with 0.1% formic acid, respectively, and the flow rate was 0.50 mL/min at 40 °C. The gradient conditions were as follows: 20% of B between 0 and 0.25 min, 20–80% of B between 0.25 and 9.75 min, 80–20% of B between 9.75 and 10 min, and 20% of B between 10 and 13 min. The MS was operated under the following conditions: electrospray ionization in negative mode at 3.0 kV, capillary temperature at 350 °C, vaporizer temperature at 300 °C, sheath gas pressure at 35 Arb, and auxiliary gas pressure at 10 Arb. Finally, Xcalibur software (Thermo Fisher Scientific Inc., Waltham, MA, USA) was used for data analysis.

[2] = Relative concentration of LOX and its metabolites in hepatic portal vein plasma 10 min post-LOX (HRMS); type: in vivo, Male ICR mice; settings: hepatic portal vein plasma 10 min after LOX 20 mg/kg oral, n = 3; for Relative concentration in plasma (DEX average % of area, VH corn oil = 100): DEX 40 mg/kg i.p. 3 days; for Relative concentration in plasma (KTC average % of area, VH 10% ethanol = 100): KTC 60 mg/kg i.p. single dose
Method: The acclimatized animals were divided into eight groups, with each group containing 3 mice: groups I and II, vehicle (corn oil); groups III and IV, DEX-treated; groups V and VI, vehicle (10% Ethanol); and groups VII and VIII, KTC-treated group. […] Then, animals were fasted for 12 hours with free access to water before starting the experiment. After fasting, LOX (20 mg/kg) was administered orally to […].
Similarly, blood from groups II, IV, VI, and VIII was collected from the hepatic portal vein 10 min post-LOX administration to identify metabolites of LOX and to analyze drug–drug interactions. Plasma from these samples was prepared as explained above. Then, 300 µL of ACN having 0.1% formic acid and 5 µM of the IS were mixed with 100 µL of each plasma sample. […] Supernatants were transferred into tubes and dried using a Labconco Speed Vac (Labconco Corporation, Kansas City, MO, USA). […] Each supernatant was transferred into an LCMS vial, and 5 µL were injected into a high-resolution mass spectrometer (HRMS).
HRMS coupled with ultrahigh performance liquid chromatography (UHPLC) was used to detect hydroxy-LOX and other metabolites of LOX. The UHPLC system, Dionex Ultimate 3000 (Dionex Softron GmbH, Germering, Germany) consisted of an HPG-3200SD Standard binary pump, a WPS 3000 TRS analytical autosampler, and a TCC-3000 SD column compartment. In this experiment, the HRMS was a Q Exactive Focus quadrupole-Orbitrap MS (Thermo Fisher Scientific, Bremen, Germany) equipped with a heated electrospray ionization (HESI-II) ion probe.
LOX was detected as a deprotonated ion [M-H]^− at m/z 245.1175 in negative ion mode. Therefore, negative ion mode was used with the following optimized conditions for LOX: spray voltage of 2.5 kV, capillary temperature of 320 °C, auxiliary gas at 12 aux unit, aux gas heater temperature of 200 °C, sheath gas at 35 aux units, and S-lens RF level of 50. LOX and its metabolites were separated using a 150 mm × 2.1 mm, 2.6-μm reverse-phase liquid chromatography column, Kinetex® C18 column (Phenomenex, CA, USA) at 40 °C. Furthermore, MS-grade solvents were used as the mobile phase in gradient elution mode: 0.1% aqueous formic acid as Solvent A and 0.1% formic acid in ACN as Solvent B. The flow was set to 0.22 mL/min with a gradient condition of Solvent B as 10% between 0 and 0.5 min, 10–50% between 0.5 and 21.5 min, 50–95% between 21.5 and 22.5 min, 95% between 22.5 and 25.5 min, 95–10% between 25.5 and 25.6 min, and 10% between 25.6 and 30 min.

CYP1A = settings: liver S9, phenacetin 80 µM
Method: To characterize the CYP activities in the harvested livers, phenacetin O-demethylation (using 80 µM of phenacetin) for CYP1A, dextromethorphan O-demethylation (using 5 µM of dextromethorphan) for CYP2D, and midazolam 1’-hydroxylation (using 5 µM of midazolam) for CYP3A were used as cocktail probe reactions [21, 22]. The level of protein in the S9 fraction was determined by Bradford assay [23]. The cocktail probes were then incubated with 10 µL of each S9 fraction, potassium phosphate buffer (pH 7.4), and an NADPH generating system (NGS) in a final volume of 100 µL. After incubation for 30 min at 37 °C, ice-cold ACN containing 0.1% formic acid and IS (5 µM) was added to stop the reaction. Samples were then vortexed and centrifuged at 13,000× g for 10 min at 4 °C. Finally, the supernatants were transferred to LC-MS/MS vials for analysis.

[3] = pretreated DEX 40 mg/kg i.p. 3 days
[4] = pretreated KTC 60 mg/kg i.p. single dose
[5] = pretreated VH (10% ethanol) i.p. single dose
[6] = pretreated VH (corn oil) i.p. 3 days

CC(=O)N1CCN(c2ccc(OCC3COC(Cn4ccnc4)(c4ccc(Cl)cc4Cl)O3)cc2)CC1 (stereo not shown) [KTC, ketoconazole]
Metabolic activity of other CYP enzymes (CYP2D, dextromethorphan O-demethylation), VH vs treated (CYP2D): unaffected
Effect on the metabolism of CYP3A4 substrate (midazolam) compared to the VH group (CYP3A): significantly decreased

CC(C(=O)O)c1ccc(CC2CCCC2O)cc1 (stereo not drawn) [cis-LOX]
AUC(0–60) [1, 3]: 29.9 ± 4.4 µg·min/mL
AUC(0–∞) [1, 3]: 31.5 ± 4.4 µg·min/mL
Cmax [1, 3]: 1100 ± 200 ng/mL
T1/2 (elimination half-life) [1, 3]: 13.9 ± 0.6 min
Tmax [1, 3]: 10.0 ± 1.0 min
AUC(0–60) [1, 4]: 49.0 ± 5.9 µg·min/mL
AUC(0–∞) [1, 4]: 51.9 ± 6.1 µg·min/mL
Cmax [1, 4]: 1600 ± 100 ng/mL
T1/2 (elimination half-life) [1, 4]: 13.4 ± 0.6 min
Tmax [1, 4]: 11.6 ± 0.8 min
AUC(0–60) [1, 5]: 36.0 ± 3.9 µg·min/mL
AUC(0–∞) [1, 5]: 38.4 ± 4.4 µg·min/mL
Cmax [1, 5]: 1200 ± 100 ng/mL
T1/2 (elimination half-life) [1, 5]: 13.3 ± 0.9 min
Tmax [1, 5]: 13.3 ± 0.8 min
AUC(0–60) [1, 6]: 72.7 ± 12.4 µg·min/mL
AUC(0–∞) [1, 6]: 75.8 ± 12.8 µg·min/mL
Cmax [1, 6]: 2400 ± 300 ng/mL
T1/2 (elimination half-life) [1, 6]: 12.3 ± 0.3 min
Tmax [1, 6]: 10.4 ± 0.7 min
Relative concentration in plasma (DEX average % of area, VH corn oil = 100) [2]: 61.9 ± 3.9%
Relative concentration in plasma (DEX average % of area, VH corn oil = 100) ([2]; listed as M2): 61.91%
Relative concentration in plasma (KTC average % of area, VH 10% ethanol = 100) [2]: 173.1 ± 5.8%
Relative concentration in plasma (KTC average % of area, VH 10% ethanol = 100) ([2]; listed as M2): 173.08%

C[C@@H]1C[C@H]2[C@@H]3CCC4=CC(=O)C=C[C@]4(C)[C@@]3(F)[C@@H](O)C[C@]2(C)[C@@]1(O)C(=O)CO [DEX, dexamethasone]
Metabolic activity of other CYP enzymes (CYP1A, phenacetin O-demethylation), VH vs treated (CYP1A): unaffected
Metabolic activity of other CYP enzymes (CYP2D, dextromethorphan O-demethylation), VH vs treated (CYP2D): unaffected
